Results on three substances are retold here after patent US20110275569A1, “PROTEASES TARGETING AGENTS” (CONSIGLIO NAZIONALE DELLE RICERCHE, priority 2008, published 2011).

In data set [1] the test system is proteasome in Caco-2 (human colon carcinoma) cells. The data set is described as follows: Proteasome activity in Caco-2 cells treated with peptides for 48 h. Type of data set: cell-based. Conditions: for proteasomal activity in Caco-2 cells (in words): differentiated Caco-2 cells. How it is done:
(§1) The proteasome down-regulation via APEH inhibition has been investigated. On the basis of the hypothesis that APEH can be used as a target to indirectly control/modulate proteasome functions in tumoral cells, an in vitro approach using the SsCEI 2, SsCEI 3 and SsCEI 4 peptides in the Caco-2 (human colon carcinoma) cell line has been carried out. To this end, differentiated Caco-2 cells were treated with peptides or with a specific proteasome inhibitor (MG132), for 48 h. […] The results were compared to those obtained in the cell-free assays, where a purified proteasome fraction was used.

In data set [2] the test system is Caco-2 cells. The data set is described as follows: Cytotoxicity by lactate dehydrogenase (LDH) activity in cell-culture media. Type of data set: cell-based, human. Particulars: up to the highest concentration used (200 μM).
In data set [3] the test system is proteasome. The data set is described as follows: Cell-free proteasome assay with purified proteasome fraction. It counts as biochemical. The protocol: as §1
For data set [4], the target named is T1, porcine acylamino-acid-releasing enzyme (AARE or APEH) (Sus scrofa, UniProt P19205).
T1 sequence (P19205 1-732): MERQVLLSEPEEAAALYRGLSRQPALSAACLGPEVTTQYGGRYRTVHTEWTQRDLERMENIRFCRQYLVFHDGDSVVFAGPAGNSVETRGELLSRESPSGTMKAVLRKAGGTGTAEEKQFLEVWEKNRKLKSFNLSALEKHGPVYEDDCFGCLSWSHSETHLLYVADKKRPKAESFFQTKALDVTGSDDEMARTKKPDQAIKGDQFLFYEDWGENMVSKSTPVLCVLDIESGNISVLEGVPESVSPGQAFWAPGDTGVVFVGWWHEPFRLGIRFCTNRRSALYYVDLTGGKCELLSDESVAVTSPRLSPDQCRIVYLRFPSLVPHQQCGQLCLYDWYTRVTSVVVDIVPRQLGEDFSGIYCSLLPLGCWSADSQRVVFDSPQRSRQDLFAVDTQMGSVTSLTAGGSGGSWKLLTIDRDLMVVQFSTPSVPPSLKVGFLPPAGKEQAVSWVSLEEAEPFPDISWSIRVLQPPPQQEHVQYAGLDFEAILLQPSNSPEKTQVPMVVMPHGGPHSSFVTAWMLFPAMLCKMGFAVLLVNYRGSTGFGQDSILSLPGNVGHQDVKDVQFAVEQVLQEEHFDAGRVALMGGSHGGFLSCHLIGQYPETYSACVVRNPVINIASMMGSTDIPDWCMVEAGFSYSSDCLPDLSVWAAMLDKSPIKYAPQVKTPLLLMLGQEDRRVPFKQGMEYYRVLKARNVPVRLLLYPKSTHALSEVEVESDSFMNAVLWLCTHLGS
The data set is described as follows: Inhibition of porcine acylamino-acid-releasing enzyme. Type of data set: biochemical. Particulars: for IC50: IC50 towards porcine acylamino-acid-releasing enzyme (AARE or APEH). The protocol:
The SsCEI 1 to 4 reported in the Example 1 were tested for ability to inhibit the activity of human acylamino-acid-releasing enzyme. Stock solutions (1 mM) of each lyophilized compounds were prepared in DMSO 100% and stored at 4° C. Inhibition effectiveness of each compound was determined by measuring enzyme activity both in the presence and absence of compounds. The activity of human acylamino-acid-releasing enzyme (AARE) was measured by using the chromogenic substrate N-acetyl-Ala-pNA (Bachem) (40 μM in DMSO 100%) as described above. […] Then, the substrate was added to the incubation mixture and the hydrolysis was performed for 20 min at 37° C. (FIG. 5). The data were fitted with the GraphPad Prism software. This analysis allowed the determination of IC50 values, which represent the concentrations at which the inhibition reached 50%. […] The IC50 values (See Table IV), obtained as average of 3-5 separate determinations, confirmed the utility of the compounds +of the present invention as effective AARE inhibitors.
The experiment described in example 7 has been performed using the porcine acylamino-acid-releasing enzyme. […] The efficiency of SsCEI 4 can be ascribed to the APEH preference for an alanine residue, with respect to the leucine, at the P1 site, assuming that the SsCEI-APEH association occurs in a substrate-like manner

The test system of data set [5] is APEH in Caco-2 cells. The data set is described as follows: APEH activity in Caco-2 cells treated with peptides. It counts as cell-based, human. Conditions: 48 h, dose-dependent decrease. How it is done: as §1
Data set [6] deals with caspase-3. The data set is described as follows: Caspase-3 activity after peptide treatment of Caco-2 cells. Type of data set: cell-based, human. From the text: To elucidate the molecular mechanisms associated with the inhibition of the proteasome, the effects of treatments with the SsCEI 2 and SsCEI 4 peptides on the activation of caspases have been evaluated.

Like-named read-outs stand apart in the source and are kept apart here.

“H-TILLEIKNINAD-NH2 [SsCEI 2, TILLEIKNINAD]”: the “proteasomal activity in Caco-2 cells (in words)” value (“proteasomal activity” below) in data set [1] is on record as “markedly reduced proteasomal activity”. Moreover, in data set [2], the “cytotoxic effects, LDH activity levels in cell-culture media” value is “not associated with any cytotoxic effects”.

In the case of “H-TILAEIKNINAD-NH2 [SsCEI 4, TILAEIKNINAD]”, the “residual proteasome activity with respect to untreated cultures” value in data set [1] (Caco-2 cells, dose-dependent decrease) was “up to 45%”. Also, in data set [1], the “proteasomal activity” value is reported as “markedly reduced proteasomal activity”. Besides, the “proteasome activity in cell-free systems” value in data set [3] is on record as “did not affect proteasome activity”. This substance showed an IC50 in data set [4] of 35 ± 0.8 µM. Moreover, the “type of inhibition of porcine APEH” value in data set [4] (Lineweaver-Burk plot) was “competitive inhibitor”. In data set [4] (porcine APEH, Lineweaver-Burk plot, read-out: Ki APEH), the inhibitory constant (Ki) was determined as 4 ± 0.8 µM. The “residual APEH activity with respect to untreated cultures” value in data set [5] is listed as “up to 45%”. Also, the caspase-3 activity result in data set [6] is on record as “increased in a dose dependent manner”. In addition, in data set [2], the “cytotoxic effects, LDH activity levels in cell-culture media” value is “not associated with any cytotoxic effects”.

For the substance “H-YAIDTILAEIKNINAD-NH2 [SsCEI 3, YAIDTILAEIKNINAD]”, the “proteasomal activity” value in data set [1] is “unable to affect proteasome”. In data set [4], this substance displayed a Ki of 20 ± 0.4 µM and a half-maximal inhibitory concentration (IC50) of 20 ± 0.4 µM.
